# Earlier results, collected in patent publication US20250319037A1, “METHODS OF DELIVERING THERAPEUTIC AGENTS, AND LIPID COMPOSITIONS” (FUJIFILM Corporation, priority 2022, published 2025).
# Details: Non-patent documents 11 and 12
compound,measurement,value
CC(C)CCC[C@@H](C)[C@H]1CC[C@H]2[C@@H]3CC=C4C[C@@H](OC(=O)NCCN(C)C)CC[C@]4(C)[C@H]3CC[C@]12C [DC-cholesterol],pKa of the tertiary amine group,7.8
